Test results from US20220227772A1, “DEUTERATED TRIAZOLOPYRIMIDINES” (THE TRUSTEES OF THE UNIVERSITY OF PENNSYLVANIA, priority 2019, published 2022).
Like-named read-outs stand apart in the source and are kept apart here.

Experiments:
[1] = system: acetylated α-tubulin in QBI293 cells; experiment: QBI293 cell-based microtubule stabilization assay, acetyl-tubulin ELISA; details: 4 h incubation
Procedure: (§1) The HEK293 cell subclone, QBI293, was maintained in DMEM supplemented with 10% fetal calf or bovine serum, 1% penicillin/streptomycin antibiotic solution and 1% glutamine at 37° C. in 5% CO2. Cells were plated into 6-well plates at a density of 800,000 cells/well. […] Test compounds were added at multiple concentrations to the test wells and incubated for 4 h. Subsequently, the media was removed and the cells were washed with 1 mL of ice-cold phosphate-buffered saline (PBS). After removal of PBS, 0.2 mL of ice-cold RIPA (0.5% sodium deoxycholate, 0.1% SDS, 1% NP-40, 5 mM EDTA, pH 8.0) containing protease inhibitor mix (1 μg/mL each of pepstatin, leupeptin, TLCK, TPCK and trypsin inhibitor), 1 mM PMSF and 1 μM trichostatin A was added to the wells. The wells were then scraped using a cell scraper and pipetted into 1.5 mL microfuge tubes. The tubes were sonicated with a handheld sonicator at 20× on a power setting of 2, followed by centrifugation for 30 min at 15,000 rpm at […]. Supernatants were removed and quantified for protein concentration and the acetyl-tubulin levels were determined using an ELISA as described.
(§2) The enzyme-linked immunosorbent assay (ELISA) was performed as previously described in Brunden, 2011, Pharmacological Research, 63:341, which is incorporated by reference herein. Briefly, 384-well plates were coated with 12G10 α-tubulin antibody (10 μg/mL; Covance, Princeton, N.J., USA) in 30 μL of cold 0.1 M bicarbonate buffer. 12G10 anti-α-tubulin antibody was originally deposited to the Developmental Studies Hybridoma Bank by Frankel and Nelsen. After overnight incubation at 4° C., the plates were blocked in Block Ace solution (Bio-Rad, Hercules, Calif., USA) for a minimum of 24 hours at 4° C. QBI-293 cell homogenates were diluted in C buffer (0.02 M sodium phosphate, 2 mM EDTA, 0.4 M NaCl, 1% BSA, 0.005% Thimerosal, pH 7.0). Typically, […] dilutions from 266 ng/μL to 22.2 ng/μL for QBI cells were performed and 30 μL of sample were added to wells in duplicate. Plates were sealed, centrifuged, and incubated overnight at 4° C. Following incubation with antigen, wells were aspirated and washed with PBS containing 0.05% Tween-20 and 0.005% thimerosal (PBS-Tween buffer). A horseradish peroxidase (HRP)-acetyl-tubulin reporter antibody was prepared by conjugating acetyl-tubulin primary antibody (Sigma Aldrich; clone 6-11B-1) to HRP using a commercially-available peroxidase labeling kit (Roche Applied Science, Indianapolis, Ind., USA). The HRP-acetyl-tubulin reporter antibody (1:1,000 v/v; Sigma Aldrich) or pre-conjugated HRP-alpha-tubulin (1:5,000 v/v; ProteinTech Group, Chicago, Ill., USA) diluted in C buffer were added to appropriate wells (30 μL per well). The plates were sealed and incubated at room temperature for 4 hours on a platform rocker, followed by washing with PBS-Tween buffer. Peroxidase substrate solution (30 μL; KPL, Gaithersburg, Md., USA) was added to each well and the reaction was quenched after 10 min with 10% phosphoric acid (30 μL). Plates were read on a SpectraMax M5 plate reader at an absorbance of 450 nm. The amount of acetyl- and alpha-tubulin protein in each sample was extrapolated using standard curves generated from serial dilutions of known protein standard (acetyl- or alpha-tubulin) concentrations.
(§3) The compounds were evaluated in a QBI293 cell-based MT assay as described in Kovalevich et al., J. Pharmacol. Exp. Ther., 2016, 357, 432-50, which is incorporated by reference herein. In summary, acetylated α-tubulin and total α-tubulin levels were determined by ELISA in cell lysates after 4 h of incubation with test compound at 1 and 10 μM (Table 1).

[2] = system: total α-tubulin in QBI293 cells; experiment: QBI293 cell-based MT assay, alpha-tubulin ELISA; details: 4 h incubation
Procedure: as §1, §2, §3

[3] = Plasma and brain compound levels in wild-type mice; format: in vivo, mouse; details: for Kp at 1 h: brain/plasma, read-out: B/P
Procedure: Mouse brains were homogenized in 10 mM ammonium acetate, pH 5.7 (1:2; w/v) using a handheld sonic homogenizer. Mouse plasma was obtained from blood that was collected into a 1.5 mL tube containing 0.5M EDTA solution and which was centrifuged for 10 minutes at 4500 g at […]. Aliquots (50 μL) of brain homogenates (50% w/v in 100 mM NH4OAc pH 5.75) or plasma were mixed with 0.2 ml of acetonitrile, centrifuged at 15,000 g, and the resulting supernatant was used for subsequent LC-MS/MS analysis. Compounds were detected using multiple reaction monitoring (MRM) of their specific collision-induced ion transitions. Samples were separated on an Agilent Zorbax C8 column (3.5 μm, 2.1×50 mm) at 35° C., with mobile phase A of 0.1% (v/v) formic acid, and B of acetonitrile with 0.1% (v/v) formic acid and a gradient of increasing B at 0.4 mL/min. To account for possible matrix effects on analytes, standard curves were generated for each compound from brain homogenate and plasma samples. The standard curve samples were extracted and analyzed in an identical fashion as the corresponding tissue-derived samples, and peak areas were plotted against concentration and a linear regression curve was used to obtain estimated concentrations of the tissue-derived samples using the peak areas. […]

[4] = female, mouse, brain, intraperitoneal, 1 h @ 2.5 mg/kg, read-out: Brain conc.
[5] = female, mouse, intraperitoneal, 1 h @ 2.5 mg/kg
[6] = female, mouse, plasma, intraperitoneal, 1 h @ 2.5 mg/kg, read-out: Plasma conc.
[7] = scaled to 5 mg/kg, read-out: Brain conc.
[8] = mouse, brain, 1 h @ 5.0 mg/kg, read-out: Brain conc.
[9] = mouse, plasma, 1 h @ 5.0 mg/kg, read-out: Plasma conc.

| SMILES | AcTub (acetylated-tubulin relative to vehicle-treated cells) ([1]; 1 μM) | AcTub (acetylated-tubulin relative to vehicle-treated cells) ([1]; 10 μM) | αTub (α-tubulin relative to vehicle-treated cells) ([2]; 1 μM) | αTub (α-tubulin relative to vehicle-treated cells) ([2]; 10 μM) | other results |
| --- | --- | --- | --- | --- | --- |
| [2H][C@](C)(Nc1c(-c2c(F)cc(F)cc2F)c(Cl)nc2ncnn12)C(C)(C)C (single isomer, unassigned) | 5.71 ± 0.13 | 7.69 ± 0.49 | 1.00 ± 0.03 | 1.05 ± 0.09 | concentration at 1 h [3, 4]: 296 ± 48 nM; Kp at 1 h [3, 5]: 2.9; concentration at 1 h [3, 6]: 104 ± 14 nM; Plasma conc. ([3]; scaled to 5 mg/kg): 208 nM; concentration at 1 h [3, 7]: 592 nM |
| [2H][C@@](C)(Nc1c(-c2c(F)cc(F)cc2F)c(Cl)nc2ncnn12)C(C)(C)C (single isomer, unassigned) | 1.10 ± 0.07 | 2.92 ± 0.04 | 1.07 ± 0.05 | 0.85 ± 0.05 | – |
| [2H]C(C)(Nc1c(-c2c(F)cc(F)cc2F)c(Cl)nc2ncnn12)C(C)C (single isomer, unassigned) [5-chloro-N-(3-methylbutan-2-yl-2-d)-6-(2,4,6-trifluorophenyl)-[1,2,4]triazolo[1,5-a]pyrimidin-7-amine] | – | – | – | – | concentration at 1 h [3, 4]: 551 ± 56 nM; Kp at 1 h [3, 5]: 2.8; concentration at 1 h [3, 6]: 199 ± 46 nM |
| [2H]C(C)(Nc1c(-c2c(F)cc(F)cc2F)c(Cl)nc2ncnn12)C(C)C (single isomer, unassigned) [5-chloro-N-(3-methylbutan-2-yl-2-d)-6-(2,4,6-trifluorophenyl] [5-chloro-N-(3-methylbutan-2-yl-2-d)-6-(2,4,6-trifluorophenyl)-[1,2,4]triazolo[1,5-a]pyrimidin-7-amine] | – | – | – | – | αTub (α-tubulin relative to vehicle-treated cells) ([2]; 1 μM, enantiomer 1): 1.16 ± 0.04; αTub (α-tubulin relative to vehicle-treated cells) ([2]; 1 μM, enantiomer 2): 0.93 ± 0.05; αTub (α-tubulin relative to vehicle-treated cells) ([2]; 10 μM, enantiomer 1): 1.20 ± 0.01; αTub (α-tubulin relative to vehicle-treated cells) ([2]; 10 μM, enantiomer 2): 0.93 ± 0.02; Plasma conc. ([3]; scaled to 5 mg/kg): 398 nM; concentration at 1 h [3, 7]: 1102 nM |
| C[C@@H](Nc1c(-c2c(F)cc(F)cc2F)c(Cl)nc2ncnn12)C(C)(C)C [(R)-5-chloro-N-(3,3-dimethylbutan-2-yl)-6-(2,4,6-trifluorophenyl)-[1,2,4]triazolo[1,5-a]pyrimidin-7-amine] | 5.11 ± 0.47 | 7.19 ± 0.31 | 1.00 ± 0.06 | 1.03 ± 0.12 | concentration at 1 h [3, 8]: 153 ± 33 nM; Kp at 1 h ([3]; mouse, 1 h @ 5.0 mg/kg): 2.2; concentration at 1 h [3, 9]: 69 ± 11 nM |
| CC(C)[C@@H](C)Nc1c(-c2c(F)cc(F)cc2F)c(Cl)nc2ncnn12 [(R)-5-chloro-N-(3-methylbutan-2-yl)-6-(2,4,6-trifluorophenyl)-[1,2,4]triazolo[1,5-a]pyrimidin-7-amine] | 2.08 ± 0.09 | 2.54 ± 0.10 | 1.10 ± 0.20 | 0.91 ± 0.17 | concentration at 1 h [3, 8]: 812 ± 61 nM; Kp at 1 h ([3]; mouse, 1 h @ 5.0 mg/kg): 2.5; concentration at 1 h [3, 9]: 320 ± 93 nM |
| C[C@H](Nc1c(-c2c(F)cc(F)cc2F)c(Cl)nc2ncnn12)C(C)(C)C [(S)-5-chloro-N-(3,3-dimethylbutan-2-yl)-6-(2,4,6-trifluorophenyl)-[1,2,4]triazolo[1,5-a]pyrimidin-7-amine] | 1.03 ± 0.01 | 3.05 ± 0.18 | 0.80 ± 0.06 | 0.83 ± 0.06 | – |
| CC(C)[C@H](C)Nc1c(-c2c(F)cc(F)cc2F)c(Cl)nc2ncnn12 [(S)-5-chloro-N-(3-methylbutan-2-yl)-6-(2,4,6-trifluorophenyl)-[1,2,4]triazolo[1,5-a]pyrimidin-7-amine] | 1.22 ± 0.10 | 2.46 ± 0.18 | 0.94 ± 0.04 | 0.88 ± 0.02 | – |
